Experimental data reported in ChEMBL document CHEMBL5625254, “Design, synthesis and evaluation of ursodeoxycholic acid-cinnamic acid hybrids as potential anti-inflammatory agents by inhibiting Akt/NF-κB and MAPK signaling pathways” (Eur J Med Chem, 2023).
Active and inactive are the calls of the source. The calls are words filed in the database; no cut-off is given here.

Assays:
RAW264.7 [1] = assay: Anti-inflammatory activity in LPS-stimulated mouse RAW264.7 cells assessed as decrease in p65 level in nucleus at 5 to 20 uM preincubated for 24 hrs followed by LPS treatment for 30 mins by Western blot analysis; type: functional, cell-based; settings: dose 5-20 µM, time 24.5 hrs
RAW264.7 [2] = assay: Anti-inflammatory activity in mouse RAW264.7 cells assessed as decrease in LPS-induced TNF-alpha level incubated for 24 hrs by ELISA; type: functional, cell-based; settings: dose 5-20 µM
RAW264.7 [3] = assay: Anti-inflammatory activity in mouse RAW264.7 cells assessed as decrease in LPS-induced COX-2 level at 5 to 20 uM incubated for 24 hrs by Western blot analysis; type: functional, cell-based; settings: dose 5-20 µM
RAW264.7 [4] = assay: Anti-inflammatory activity in mouse RAW264.7 cells assessed as decrease in LPS-induced COX-2 mRNA level incubated for 24 hrs by RT-PCR analysis; type: functional, cell-based; settings: dose 5-20 µM
Mus musculus [5] = assay: Anti-inflammatory activity in endotoxemia ICR mouse model assessed as decrease in LPS-induced serum TNF-alpha level at 10 to 20 mg/kg, IG for 7 days consecutively followed by LPS treatment measured after 24 hrs by ELISA; type: functional, organism-based; settings: dose 10-20 mg/kg, time 8.0 day
RAW264.7 [6] = assay: Anti-inflammatory activity in mouse RAW264.7 cells assessed as decrease in LPS-induced IL-6 mRNA level incubated for 24 hrs by RT-PCR analysis; type: functional, cell-based; settings: dose 5-20 µM
RAW264.7 [7] = assay: Anti-inflammatory activity in mouse RAW264.7 cells assessed as decrease in LPS-induced IL-1beta level incubated for 24 hrs by ELISA; type: functional, cell-based; settings: dose 5-20 µM
RAW264.7 [8] = assay: Anti-inflammatory activity in mouse RAW264.7 cells assessed as decrease in LPS-induced IL-6 level incubated for 24 hrs by ELISA; type: functional, cell-based; settings: dose 5-20 µM
RAW264.7 [9] = assay: Effect on total p65 level in cytoplasm of LPS-stimulated mouse RAW264.7 cells at 5 to 20 uM preincubated for 24 hrs followed by LPS treatment for 30 mins by Western blot analysis; type: functional, cell-based; settings: dose 5-20 µM, time 24.5 hrs
Mus musculus [10] = assay: Anti-inflammatory activity in endotoxemia ICR mouse model assessed as decrease in LPS-induced serum IL-6 level at 10 to 20 mg/kg, IG for 7 days consecutively followed by LPS treatment measured after 24 hrs by ELISA; type: functional, organism-based; settings: dose 10-20 mg/kg, time 8.0 day
RAW264.7 [11] = assay: Anti-inflammatory activity in mouse RAW264.7 cells assessed as decrease in LPS-induced JNK phosphorylation at 5 to 20 uM incubated for 24 hrs by Western blot analysis; type: functional, cell-based; settings: dose 5-20 µM
RAW264.7 [12] = assay: Anti-inflammatory activity in mouse RAW264.7 cells assessed as inhibition of LPS-induced NO production incubated for 24 hrs; type: functional, cell-based
Mus musculus [13] = assay: Anti-inflammatory activity in endotoxemia ICR mouse model assessed as decrease in LPS-induced serum IL-1beta level at 10 to 20 mg/kg, IG for 7 days consecutively followed by LPS treatment measured after 24 hrs by ELISA; type: functional, organism-based; settings: dose 10-20 mg/kg, time 8.0 day
RAW264.7 [14] = assay: Anti-inflammatory activity in mouse RAW264.7 cells assessed as decrease in LPS-induced PGE2 level incubated for 24 hrs by ELISA; type: functional, cell-based; settings: dose 5-20 µM
RAW264.7 [15] = assay: Anti-inflammatory activity in mouse RAW264.7 cells assessed as decrease in LPS-induced ERK phosphorylation at 5 to 20 uM incubated for 24 hrs by Western blot analysis; type: functional, cell-based; settings: dose 5-20 µM
RAW264.7 [16] = assay: Anti-inflammatory activity in LPS-stimulated mouse RAW264.7 cells assessed as increase in I-kappa-B-alpha level at 5 to 20 uM preincubated for 24 hrs followed by LPS treatment for 30 mins by Western blot analysis; type: functional, cell-based; settings: dose 5-20 µM, time 24.5 hrs
RAW264.7 [17] = assay: Anti-inflammatory activity in mouse RAW264.7 cells assessed as inhibition of LPS-induced NO production at 10 uM incubated for 24 hrs relative to control; type: functional
RAW264.7 [18] = assay: Anti-inflammatory activity in mouse RAW264.7 cells assessed as decrease in LPS-induced iNOS level at 5 to 20 uM incubated for 24 hrs by Western blot analysis; type: functional, cell-based; settings: dose 5-20 µM
RAW264.7 [19] = assay: Anti-inflammatory activity in mouse RAW264.7 cells assessed as decrease in LPS-induced Akt phosphorylation at 5 to 20 uM preincubated for 24 hrs followed by LPS treatment for 30 mins by Western blot analysis; type: functional, cell-based; settings: dose 5-20 µM, time 24.5 hrs
RAW264.7 [20] = assay: Anti-inflammatory activity in mouse RAW264.7 cells assessed as decrease in LPS-induced IL-1beta mRNA level incubated for 24 hrs by RT-PCR analysis; type: functional, cell-based; settings: dose 5-20 µM
RAW264.7 [21] = assay: Cytotoxicity against mouse RAW264.7 cells assessed as cell viability at 20 uM incubated for 24 hrs by CCK8 assay; type: toxicity, cell-based; settings: raw264.7, 24 h
RAW264.7 [22] = assay: Anti-inflammatory activity in mouse RAW264.7 cells assessed as decrease in LPS-induced p38 phosphorylation at 5 to 20 uM incubated for 24 hrs by Western blot analysis; type: functional, cell-based; settings: dose 5-20 µM

For Cc1ccc(/C=C/C(=O)N2CCN(C(=O)CC[C@@H](C)[C@H]3CC[C@H]4[C@@H]5[C@@H](O)C[C@@H]6C[C@H](O)CC[C@]6(C)[C@H]5CC[C@]34C)CC2)cc1, which Activity (RAW264.7 [1]) is on record?
The Activity was “Active”.

What about the Activity (RAW264.7 [2]) of the same compound?
The Activity was “Dose-Dependent Effect”.

What about the Activity (RAW264.7 [3]) of the same compound?
Its Activity is “Active”.

What about the Activity (RAW264.7 [4]) of the same compound?
The Activity was “Dose-Dependent Effect”.

What about the Activity (Mus musculus [5]) of the same compound?
The Activity was “Active”.

And the Activity (RAW264.7 [6])?
The Activity was “Dose-Dependent Effect”.

What about the Activity (RAW264.7 [7]) of the same compound?
The Activity was “Dose-Dependent Effect”.

And the Activity (RAW264.7 [8])?
Its Activity is “Dose-Dependent Effect”.

What about the Activity (RAW264.7 [9]) of the same compound?
Its Activity is “inactive”.

And the Activity (Mus musculus [10])?
The Activity was “Active”.

What about the Activity (RAW264.7 [11]) of the same compound?
The Activity was “Active”.

What about the IC50 (RAW264.7 [12]; RAW264.7, 24 h) of the same compound?
Its IC50 is 7.7 µM.

And the inhibition (RAW264.7 [12]; dose 1.25-20 µM)?
Its inhibition is “Dose-Dependent Effect”.

And the Activity (Mus musculus [13])?
Its Activity is “Active”.

And the Activity (RAW264.7 [14])?
The Activity was “Dose-Dependent Effect”.

And the Activity (RAW264.7 [15])?
Its Activity is “Active”.

What about the Activity (RAW264.7 [16]) of the same compound?
Its Activity is “Active”.

What about the inhibition at 10 µM (RAW264.7 [17]) of the same compound?
The inhibition at 10 µM was > 50%.

What about the Activity (RAW264.7 [18]) of the same compound?
Its Activity is “Active”.

What about the Activity (RAW264.7 [19]) of the same compound?
The Activity was “Active”.

What about the Activity (RAW264.7 [20]) of the same compound?
The Activity was “Dose-Dependent Effect”.

What about the Activity (RAW264.7 [21]) of the same compound?
The Activity was “Non-Toxic”.

And the Activity (RAW264.7 [22])?
The Activity was “Active”.
